System: XANST (Xanthium strumarium, common cocklebur)
Assay: Pre-emergence soil-applied mixtures, greenhouse
Format: in vivo, Xanthium strumarium L.
Details: for Visual Weed Control (%) Obs: 32 DAA
Source text: Seeds or nutlets of the desired test plant species were planted in a soil matrix prepared by mixing a loam soil (32 percent silt, 23 percent clay, and 45 percent sand, with a pH of about 6.5 and an organic matter content of about 1.9 percent) and calcareous grit in an 80 to 20 ratio. The soil matrix was contained in plastic pots with a volume of 1 quart and a surface area of 83.6 square centimeters (cm^2).
Treatments consisted of the benzyl ester of 4-amino-3-chloro-5-fluoro-6-(4-chloro-2-fluoro-3-methoxy-phenyl)pyridine-2-carboxylic acid (compound A) formulated as an SC (suspension concentrate) and various herbicidal components alone and in combination. Forms of compound A were applied on an acid equivalent basis.
Other herbicidal components were applied on an acid equivalent or active ingredient basis and included the PSII-inhibiting herbicides, atrazine formulated as Atrazine® 90WDG, metribuzin formulated as Metribuzin 75DF, simazine formulated as Princep Caliber 90, tebuthiuron formulated as Spike 80DF, cyanazine (technical grade material), hexazinone (technical grade material), linuron (technical grade material), terbuthylazine (technical grade material), and diuron formulated as Diuron 4L.
Treatment requirements were calculated based upon the rates being tested, the concentration of active ingredient or acid equivalent in the formulation, and a 12 mL application volume at a rate of 187 L/ha.
For treatments comprised of formulated compounds, measured amounts of compounds were placed individually in 25 mL glass vials and diluted in a volume of 1.25% (v/v) Agri-Dex® crop oil concentrate (COC) to obtain 12× stock solutions. […] Application solutions were prepared by adding an appropriate amount of each stock solution (e.g., 1 mL) and diluted to the appropriate final concentrations with the addition of 10 mL of an aqueous mixture of 1.25% (v/v) COC so that the final spray solutions contained 1.25% (v/v) COC.
For treatments comprised of technical compounds, weighed amounts can be placed individually in 25 mL glass vials and dissolved in a volume of 97:3 (v/v) acetone/DMSO to obtain 12× stock solutions. […] Application solutions can be prepared by adding an appropriate amount of each stock solution (e.g., 1 mL) and diluted to the appropriate final concentrations with the addition of 10 mL of an aqueous mixture of 1.5% (v/v) COC so that the final spray solutions contain 1.25% (v/v) COC. When technical materials are used, the concentrated stock solutions can be added to the spray solutions so that the final acetone and DMSO concentrations of the application solutions are 16.2% and 0.5%, respectively.
For treatments comprised of formulated and technical compounds, weighed amounts of the technical materials can be placed individually in 25 mL glass vials and dissolved in a volume of 97:3 (v/v) acetone/DMSO to obtain 12× stock solutions, and measured amounts of the formulated compounds can be placed individually in 25 mL glass vials and diluted in a volume of 1.5% (v/v) COC or water to obtain 12× stock solutions. […] Application solutions can be prepared by adding an appropriate amount of each stock solution (e.g., 1 mL) and diluted to the appropriate final concentrations with the addition of an appropriate amount of an aqueous mixture of 1.5% (v/v) COC so that the final spray solutions contain 1.25% (v/v) COC. As required, additional water and/or 97:3 (v/v) acetone/DMSO can be added to individual application solutions so that the final acetone and DMSO concentrations of the application solutions being compared are 8.1% and 0.25%, respectively.
All stock solutions and applications solutions were visually inspected for compound compatibility prior to application. Spray solutions were applied to the soil with an overhead Mandel track sprayer equipped with a 8002E nozzles calibrated to deliver 187 L/ha over an application area of 0.503 m^2 at a spray height of 18 inches (46 cm) above average pot height. […]

[1] = Compound A Benzyl Ester 16 g ae/ha
[2] = Compound A Benzyl Ester 32 g ae/ha

In the case of `CCNc1nc(Cl)nc(NCC)n1` [Simazine, 6-chloro-N,N′-diethyl-1,3,5-triazine-2,4-diamine, reference compound], the “Visual Weed Control (%) - 33 DAA XANST Obs” value (Simazine 1120 g ai/ha) is reported as 70% and the “Visual Weed Control (%) - 33 DAA XANST Obs” value (Simazine 2240 g ai/ha) is reported as 92%.
With `CCNc1nc(Cl)nc(NC(C)C)n1` [Atrazine, 6-chloro-N-ethyl-N′-(1-methylethyl)-1,3,5-triazine-2,4-diamine, reference compound] the “Visual Weed Control (%) Obs” value (560 g ai/ha) was 68% and the “Visual Weed Control (%) Obs” value (1120 g ai/ha) was 40%.
In the case of `COc1c(Cl)ccc(-c2nc(C(=O)OCc3ccccc3)c(Cl)c(N)c2F)c1F` [Compound A Benzyl Ester, benzyl ester of 4-amino-3-chloro-5-fluoro-6-(4-chloro-2-fluoro-3-methoxy-phenyl)pyridine-2-carboxylic acid], the “Visual Weed Control (%) Obs” value (8 g ae/ha) is reported as 33%, the “Visual Weed Control (%) Obs” value (16 g ae/ha) is reported as 35% and the “Visual Weed Control (%) Obs” value (32 g ae/ha) is reported as 65%. For the same compound, the “Visual Weed Control (%) - 27 DAA XANST Obs” value [1] was 10%, the “Visual Weed Control (%) - 29 DAA XANST Obs” value [1] was 0% and the “Visual Weed Control (%) - 33 DAA XANST Obs” value [1] was 38%. The “Visual Weed Control (%) - 27 DAA XANST Obs” value [2] was 25%, the “Visual Weed Control (%) - 29 DAA XANST Obs” value [2] was 5% and the “Visual Weed Control (%) - 33 DAA XANST Obs” value [2] was 35%.
